Measured values: paper PMC6739329 (Scientific Reports, 2019)
Read-outs that look alike come from different tables or passages of the source. Blank lines part the entries; values can stand above or below the compound they belong to.

Columns and labels:
HEK293 cells [1] = test: In vivo glycolytic activity assay (extracellular lactate); format: cell-based, human; details: for Reduction of extracellular lactate levels: 15 hrs
Method: Data are mean ± SD (n = 3).
Glycolytic activity of HEK293 cells in the absence or presence of different concentrations of salicylates was measured by monitoring the level of lactate produced[33],[34]. HEK293 cells were seeded in 96-well tissue culture plates at a density of 10^4 cells/well in 120 µL of complete medium (DMEM medium supplemented with 10% heat-inactivated FBS). Plates were incubated overnight in a CO2 incubator at 37 °C. […] Following a 15 hr incubation in a CO2 incubator at 37 °C, cellular supernatants were collected and lactate levels were measured by colorimetry according to the manufacturer’s instructions for a glycolysis cell-based assay kit (Cayman, Ann Arbor, Michigan).

[2] = target: maltose-binding protein (MBP) (Escherichia coli, UniProt P0AEX9); test: Thermal stability assay of maltose-binding protein (negative control protein); details: 10 mM SA
PKM2 [3] = target: T1, PKM2 (Homo sapiens, UniProt P14618); test: Thermal stability assay of PKM2 with salicylates; format: binding; details: 2 µM PKM2, Tm 42 °C without ligand
T1 construct: each gene was amplified and cloned into pET28a vector for recombinant protein production; 6xHis; made in house; host or cells: Escherichia coli BL21

PKM2 [4] = target: T1, PKM2; test: In vitro PKM activity assay (LDH-coupled, NADH to NAD+), PKM2; format: biochemical; details: 1.3 ng/µL PKM2
Method: PK activity was measured using a method described previously with minor modifications. In brief, PK activity was measured by monitoring pyruvate-dependent conversion of NADH to NAD^+ by lactate dehydrogenase (LDH). Increasing concentrations of salicylates were incubated with PKM2 (final concentration 1.3 ng/uL) for 30 min at RT in the incubation buffer (50 mM Tris-HCl, pH 7.5, 100 mM KCl, 5 mM MgCl2) before mixing with 1/10 volume of 10X pyruvate kinase reaction buffer (500 mM Tris-HCl, pH 7.5, 500 mM KCl, 50 mM MgCl2, 5 mM PEP (Sigma-Aldrich, P0564), 6 mM ADP (Sigma-Aldrich, A5285), 80 units LDH (Sigma-Aldrich, L1254), 10 mM DTT, and 1.80 mM NADH (SigmaAldrich, N8129)).

[5] = resulting from the required aspirin dosage; cited from earlier work
ENO1 [6] = target: T2, ENO1 (Homo sapiens, UniProt P06733); test: Thermal stability assay of ENO1 with salicylates; details: 2 µM ENO1, Tm 44 °C in the absence of SA or amoB1
Method: Data are mean ± SD (n = 3). Experiments were repeated three times with similar results.
Thermal stability assay was performed with ENO1 and PKM2 as previously described with minor modifications[7].
A thermal stability assay was used to examine the binding activities of ENO1 and PMK2 with salicylates as previously described with minor modifications 6. Purified ENO1 and
final concentration of each protein was 2 μM in 16 μl of reaction buffer (0.1 M HEPES, pH 7.5, 150 mM NaCl, and 5 mM BME). Four μl of a 1:200 dilution of stock SYPRO orange dye (Invitrogen) in reaction buffer was added to achieve a total reaction volume of 20 μl. Thermal melt curves were obtained by heating the protein from 20–95°C and monitoring fluorescence at 590 nm with a CFX96 Real-Time PCR Detection System (Bio-Rad). All curves were obtained in triplicate and averaged.

HEK293 cells [7] = test: Morphology of HEK293 cells treated 15 h with salicylates; format: cell-based, human; details: 15 h treatment
Source text: Data are mean ± SD (n = 3). […] Scale bar = 20 μm.
changes in HEK293 cells. Scale bar = 50 μm.
changes of HEK293 cells. Scale bar = 50 μm.

PKM1 = PKM1 (Homo sapiens, UniProt P14618); test: In vitro PKM activity assay, PKM1; format: biochemical; details: SA 0.4 mM
ENO1 [8] = target: T2, ENO1; test: In vitro ENO1 activity assay (2-PGA to PEP, absorbance at 240 nm)
Method: Background signals induced by reaction solutions containing salicylates and 2-PGA, but without ENO1, were subtracted to calculate ΔOD240. […] Percent inhibition was calculated by monitoring the ΔOD240 at 5 min with or without salicylates. Data are mean ± SD (n = 3). Experiments were repeated three times with similar results.
The catalytic activity of ENO1 was tested as previously described with minor modifications[80]. Briefly, increasing concentrations of salicylates were incubated with 0.1 µM ENO1 for 30 min at RT in reaction buffer (10 mM KCl, 5 mM MgSO4, 100 mM triethanolamine pH 7.4).

ENO1 [9] = target: T2, ENO1; details: read-out: Kd (quenching of ENO1 intrinsic fluorescence); 1 µM ENO1, 30 min at RT
Method: For the Trp intrinsic fluorescence assay, different concentrations of salicylates were incubated with 1 µM ENO1 for 30 min at RT, then Trp emission fluorescence was obtained (excitation/emission = 295 nm/350 nm). […] Data are mean ± SD (n = 3). Experiments were repeated three times with similar results.
Binding of salicylates to ENO1 and PKM2 was assessed using a Trp intrinsic fluorescence assay as previously described[79].
A Trp intrinsic fluorescence assay was used to examine the binding of salicylates to ENO1
The final concentration of each protein was 1 μM in phosphate-buffered saline (PBS) buffer. The mixtures were subjected to excitation wavelength of 295 nm and the Trp emission fluorescence was recorded at 350 nm using a LS55 fluorescence spectrometer (Perkin Elmer). All data were obtained in triplicate and averaged.

PKM2 [10] = target: T1, PKM2; test: Tryptophan (Trp) intrinsic fluorescence assay of PKM2; format: binding; details: 1 µM PKM2, 30 min at RT; read-out: Kd (quenching of PKM2 intrinsic fluorescence)

T1 sequence (P14618 whole entry): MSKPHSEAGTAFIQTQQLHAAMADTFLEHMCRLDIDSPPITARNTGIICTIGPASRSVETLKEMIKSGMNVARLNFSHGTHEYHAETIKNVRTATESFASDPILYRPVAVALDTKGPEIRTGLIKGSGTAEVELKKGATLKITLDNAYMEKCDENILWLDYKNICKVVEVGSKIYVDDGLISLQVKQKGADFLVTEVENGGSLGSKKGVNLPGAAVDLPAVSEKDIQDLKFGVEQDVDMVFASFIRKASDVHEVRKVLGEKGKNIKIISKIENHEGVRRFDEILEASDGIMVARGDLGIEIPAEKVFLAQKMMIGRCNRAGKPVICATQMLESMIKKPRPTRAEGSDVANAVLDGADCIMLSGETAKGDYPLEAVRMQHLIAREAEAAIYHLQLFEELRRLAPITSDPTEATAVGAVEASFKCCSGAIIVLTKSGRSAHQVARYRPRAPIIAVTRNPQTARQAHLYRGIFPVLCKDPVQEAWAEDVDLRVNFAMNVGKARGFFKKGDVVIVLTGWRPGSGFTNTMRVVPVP
T2 sequence (P06733 whole entry): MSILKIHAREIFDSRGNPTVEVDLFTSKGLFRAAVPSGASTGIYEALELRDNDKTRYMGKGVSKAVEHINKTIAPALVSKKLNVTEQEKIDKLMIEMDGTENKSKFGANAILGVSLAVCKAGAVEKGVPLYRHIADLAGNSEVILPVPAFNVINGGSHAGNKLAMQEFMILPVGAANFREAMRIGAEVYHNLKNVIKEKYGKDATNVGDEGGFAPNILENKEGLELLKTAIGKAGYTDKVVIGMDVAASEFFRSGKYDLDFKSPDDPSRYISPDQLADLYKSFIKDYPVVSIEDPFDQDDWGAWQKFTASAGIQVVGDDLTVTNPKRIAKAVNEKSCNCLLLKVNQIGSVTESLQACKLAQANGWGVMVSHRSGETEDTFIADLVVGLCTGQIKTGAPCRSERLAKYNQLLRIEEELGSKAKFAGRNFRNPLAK
PKM1, sequence (P14618 1-531 isoform P14618-2, species assumed): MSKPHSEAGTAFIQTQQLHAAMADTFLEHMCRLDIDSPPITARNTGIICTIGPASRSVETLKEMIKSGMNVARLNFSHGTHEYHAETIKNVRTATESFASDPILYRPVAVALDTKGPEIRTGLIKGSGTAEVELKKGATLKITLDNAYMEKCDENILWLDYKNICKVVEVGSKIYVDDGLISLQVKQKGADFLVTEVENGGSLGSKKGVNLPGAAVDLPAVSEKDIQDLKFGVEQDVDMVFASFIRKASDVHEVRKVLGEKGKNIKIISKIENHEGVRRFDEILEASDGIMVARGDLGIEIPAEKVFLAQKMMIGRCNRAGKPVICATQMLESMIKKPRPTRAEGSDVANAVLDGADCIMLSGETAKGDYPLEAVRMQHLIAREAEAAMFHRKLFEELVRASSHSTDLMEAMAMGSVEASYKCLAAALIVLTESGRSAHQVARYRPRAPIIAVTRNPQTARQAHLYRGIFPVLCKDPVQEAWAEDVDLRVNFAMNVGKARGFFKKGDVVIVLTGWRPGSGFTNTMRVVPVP

SMILES: O=C(O)c1ccccc1O [SA, Salicylic acid]
Reduction of extracellular lactate levels (HEK293 cells [1]; 0.5 mM SA): 12%
Reduction of extracellular lactate levels (HEK293 cells [1]; 1.0 mM SA): 27%
Tm of MBP [2]: not altered
Tm of PKM2 (PKM2 [3]; 5 mM SA): 41 °C
inhibition at 400 µM (PKM2 [4]; 400 µM SA): ≤ 40%
SA in the plasma for analgesic/antipyretic effects [5]: ~ 0.5 mM
Tm of ENO1 (ENO1 [6]; 5 mM SA): 43.0 °C
Concentration at which cells were substantially smaller and more spherical (HEK293 cells [7]): ≥ 20000 µM
Concentration with no detectable morphological deformation of cells (HEK293 cells [7]; microscope): up to 10 mM
Effect on PKM1 enzymatic activity (PKM1): did not alter
IC50 (ENO1 [8]): 1300 µM

Kd (ENO1 [9]): 26.9 µM
Tm of PKM2 (PKM2 [3]; 5 µM amoB1): 42.4 °C
IC50 (PKM2 [4]): 15.2 µM
Tm of ENO1 (ENO1 [6]; 12.5 µM amoB1): 45.1 °C
Concentration at which cell deformation was observed (HEK293 cells [7]): above 2 µM
Concentration with no visible morphological changes of cells (HEK293 cells [7]): Up to 2 µM
Potency of ENO1 inhibition relative to SA (times stronger than SA) (ENO1 [8]; ratio of IC50 values): ~ 84 times
IC50 (ENO1 [8]; read-out: IC50 for ENO1 enzymatic activity, 0.1 µM ENO1, […] 2-PGA, ΔOD240 at 5 min): 15.4 µM
Kd (PKM2 [10]): 3.2 µM
SMILES: COc1cc(CCc2ccccc2)c(C(=O)O)c(O)c1C/C=C(\C)CCC=C(C)C [amoB1, amorfrutin B1]
Extracellular lactate levels (HEK293 cells [1]; 20–50 µM amoB1, 15 hr): drastically reduced
Extracellular lactate levels (HEK293 cells [1]; amoB1 up to 10 µM, 15 hr): not substantially altered
